From patent publication US20150307938A1, “METHOD TO IDENTIFY A NOVEL CLASS OF IMMUNOLOGIC ADJUVANTS” (Lancell, L.L.C., priority 2011, published 2015)
Counter-ions that a name gives are not always drawn.

Columns and labels:
[1] = test system: Fluzone; parameters: species or system C57BL/6 mice; settings: mouse, in vivo
[2] = test system: Murine Skin Dendritic Cells; assay: Activation of murine skin dendritic cells by DBP vs. DBlT (DC per lymph node, CD86); format: in vivo; settings: topical treatment
[3] = test system: skin; assay: Affymetrix microarray of skin, DBP-4 hr and analogs vs. untreated; gene selection by log-2 fold change, Wilcoxon, Kendall tau (Tables 8, 9); format: in vivo, mouse
[4] = test system: skin dendritic cells; assay: Flow cytometric analysis of Ahr−/− response to topical DBP; settings: topical application

Compound: CCCCOC(=O)[C@H](O)[C@@H](O)C(=O)OCCCC [DBlT, dibutyl L tartrate]
- HAI titer / adjuvant effect with the same dose of Fluzone [1]: almost but not quite as good as DBT had
- MFI CD86 [2]: 634 (126)

Compound: COC(=O)c1ccccc1C(=O)OC [DMP, dimethylphthalate]
- Log2 Expression Level ([3]; gene #1 of Table 8): 5.82
- Log2 Expression Level ([3]; gene #2 of Table 8): 6.47
- Log2 Expression Level ([3]; gene #3 of Table 8): 8.83
- Log2 Expression Level ([3]; gene #4 of Table 8): 8.83
- Log2 Expression Level ([3]; gene #5 of Table 8): 6.08
- Log2 Expression Level ([3]; gene #6 of Table 8): 6.09
- Log2 Expression Level ([3]; gene #7 of Table 8): 5.32
- Log2 Expression Level ([3]; gene #8 of Table 8): 6.09
- Log2 Expression Level ([3]; gene #9 of Table 8): 6.09
- Log2 Expression Level ([3]; gene #10 of Table 8): 6.09
- Log2 Expression Level ([3]; gene #11 of Table 8): 5.32
- Log2 Expression Level ([3]; gene #12 of Table 8): 5.32
- Log2 Expression Level ([3]; gene #13 of Table 8): 5.32
- Log2 Expression Level ([3]; gene #14 of Table 8): 4.91
- Log2 Expression Level ([3]; gene #15 of Table 8): 4.91
- Log2 Expression Level ([3]; gene #16 of Table 8): 6.50
- Log2 Expression Level ([3]; gene #17 of Table 8): 8.80
- Log2 Expression Level ([3]; gene #18 of Table 8): 8.80
- Log2 Expression Level ([3]; gene #19 of Table 8): 8.29
- Log2 Expression Level ([3]; gene #20 of Table 8): 8.26
- Log2 Expression Level ([3]; gene #21 of Table 8): 7.91
- Log2 Expression Level ([3]; gene #22 of Table 8): 5.99
- Log2 Expression Level ([3]; gene #23 of Table 8): 5.65
- Log2 Expression Level ([3]; gene #24 of Table 8): 7.33
- Log2 Expression Level ([3]; gene #25 of Table 8): 7.33
- Log2 Expression Level ([3]; gene #26 of Table 8): 7.55
- Log2 Expression Level ([3]; gene #27 of Table 8): 7.55
- Log2 Expression Level ([3]; gene #28 of Table 8): 7.55
- Log2 Expression Level ([3]; gene #29 of Table 8): 5.77
- Log2 Expression Level ([3]; gene #30 of Table 8): 8.30
- Log2 Expression Level ([3]; gene #31 of Table 8): 8.30
- Log2 Expression Level ([3]; gene #32 of Table 8): 8.30
- Log2 Expression Level ([3]; gene #33 of Table 8): 5.48
- Log2 Expression Level ([3]; gene #34 of Table 8): 6.50
- Log2 Expression Level ([3]; gene #35 of Table 8): 6.50
- Log2 Expression Level ([3]; gene #36 of Table 8): 8.83
- Log2 Expression Level ([3]; gene #37 of Table 8): 8.83
- Log2 Expression Level ([3]; gene #38 of Table 8): 8.83
- Log2 Expression Level ([3]; gene #39 of Table 8): 7.03
- Log2 Expression Level ([3]; gene #40 of Table 8): 7.09
- Log2 Expression Level ([3]; gene #41 of Table 8): 7.32
- Log2 Expression Level ([3]; gene #42 of Table 8): 6.91
- Log2 Expression Level ([3]; gene #43 of Table 8): 6.91
- Log2 Expression Level ([3]; gene #44 of Table 8): 7.32
- Log2 Expression Level ([3]; gene #45 of Table 8): 6.91
- Log2 Expression Level ([3]; gene #46 of Table 8): 7.32
- Log2 Expression Level ([3]; gene #47 of Table 8): 8.08
- Log2 Expression Level ([3]; gene #48 of Table 8): 8.08
- Log2 Expression Level ([3]; gene #49 of Table 8): 8.08
- Log2 Expression Level ([3]; gene #50 of Table 8): 9.13
- Log2 Expression Level ([3]; gene #51 of Table 8): 7.49
- Log2 Expression Level ([3]; gene #52 of Table 8): 9.61
- Log2 Expression Level ([3]; gene #53 of Table 8): 8.18
- Log2 Expression Level ([3]; gene #54 of Table 8): 9.63
- Log2 Expression Level ([3]; gene #55 of Table 8): 6.47
- Log2 Expression Level ([3]; gene #56 of Table 8): 9.09
- Log2 Expression Level ([3]; gene #57 of Table 8): 8.30
- Log2 Expression Level ([3]; gene #58 of Table 8): 8.81
- Log2 Expression Level ([3]; gene #59 of Table 8): 8.07
- Log2 Expression Level ([3]; gene #60 of Table 8): 6.96
- Log2 Expression Level ([3]; gene #61 of Table 8): 11.13
- Log2 Expression Level ([3]; gene #62 of Table 8): 7.95
- Log2 Expression Level ([3]; gene #63 of Table 8): 10.28
- Log2 Expression Level ([3]; gene #64 of Table 8): 10.44
- Log2 Expression Level ([3]; gene #65 of Table 8): 6.81
- Log2 Expression Level ([3]; gene #66 of Table 8): 8.09
- Log2 Expression Level ([3]; gene #67 of Table 8): 4.20
- Log2 Expression Level ([3]; gene #68 of Table 8): 7.36
- Log2 Expression Level ([3]; gene #69 of Table 8): 5.28
- Log2 Expression Level ([3]; gene #70 of Table 8): 3.86
- Log2 Expression Level ([3]; gene #71 of Table 8): 7.42
- Log2 Expression Level ([3]; gene #72 of Table 8): 7.77
- Log2 Expression Level ([3]; gene #73 of Table 8): 5.38
- Log2 Expression Level ([3]; gene #74 of Table 8): 7.07
- Log2 Expression Level ([3]; gene #75 of Table 8): 8.29
- Log2 Expression Level ([3]; gene #76 of Table 8): 4.15
- Log2 Expression Level ([3]; gene #77 of Table 8): 8.59
- Log2 Expression Level ([3]; gene #78 of Table 8): 9.90
- Log2 Expression Level ([3]; gene #79 of Table 8): 7.10
- Log2 Expression Level ([3]; gene #80 of Table 8): 12.64
- Log2 Expression Level ([3]; gene #81 of Table 8): 5.57
- Log2 Expression Level ([3]; gene #82 of Table 8): 4.77
- Log2 Expression Level ([3]; gene #83 of Table 8): 6.70
- Log2 Expression Level ([3]; gene #84 of Table 8): 6.49
- Log2 Expression Level ([3]; gene #85 of Table 8): 4.59
- Log2 Expression Level ([3]; gene #86 of Table 8): 6.27
- Log2 Expression Level ([3]; gene #87 of Table 8): 8.57
- Log2 Expression Level ([3]; gene #88 of Table 8): 5.28
- Log2 Expression Level ([3]; gene #89 of Table 8): 5.43
- Log2 Expression Level ([3]; gene #90 of Table 8): 9.55
- Log2 Expression Level ([3]; gene #91 of Table 8): 6.99
- Log2 Expression Level ([3]; gene #92 of Table 8): 6.96
- Log2 Expression Level ([3]; gene #93 of Table 8): 8.40
- Log2 Expression Level ([3]; gene #94 of Table 8): 7.22
- Log2 Expression Level ([3]; gene #95 of Table 8): 5.77
- Log2 Expression Level ([3]; gene #96 of Table 8): 7.21
- Log2 Expression Level ([3]; gene #97 of Table 8): 5.27
- Log2 Expression Level ([3]; gene #98 of Table 8): 4.12
- Log2 Expression Level ([3]; gene #99 of Table 8): 8.88
- Log2 Expression Level ([3]; gene #100 of Table 8): 6.73

Compound: CC12CCC(CC1=O)C2(C)C (centres unmarked) [camphor]
- HAI titer / adjuvant effect with the same dose of Fluzone [1]: improved

Compound: O=[N+]([O-])c1ccc(F)c([N+](=O)[O-])c1 [dinitrofluorobenzene, reference compound]
- skin dendritic cell response in AhR−/− mice [4]: severely impaired
